Drawing on ChEMBL document CHEMBL1275523 (Antimicrob Agents Chemother, 2008), this text covers IC50 for three molecules.

A value given as a limit tells only on which side of the number the result lay.

Holding throughout (type): cell-based
Assay [1] has as its target T1, Sialidase-3 (Homo sapiens, UniProt Q9UQ49).
T1 sequence (Q9UQ49 whole entry): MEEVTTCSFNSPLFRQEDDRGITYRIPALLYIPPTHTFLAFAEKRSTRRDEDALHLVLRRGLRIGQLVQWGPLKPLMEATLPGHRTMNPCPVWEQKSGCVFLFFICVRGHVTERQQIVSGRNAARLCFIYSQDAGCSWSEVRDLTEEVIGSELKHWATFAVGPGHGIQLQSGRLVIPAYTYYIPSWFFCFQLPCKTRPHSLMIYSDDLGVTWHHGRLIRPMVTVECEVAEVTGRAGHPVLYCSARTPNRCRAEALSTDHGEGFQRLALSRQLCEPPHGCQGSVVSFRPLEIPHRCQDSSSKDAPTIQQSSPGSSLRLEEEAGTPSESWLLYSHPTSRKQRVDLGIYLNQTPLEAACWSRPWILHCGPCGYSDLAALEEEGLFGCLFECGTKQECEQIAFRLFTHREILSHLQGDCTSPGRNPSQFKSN
The experiment in a line: Inhibition of human NEU3 expressed in HEK293 cells by fluorometric high-performance liquid chromatography using ganglioside GM3 substrate.

The next assay has as its target T2, Sialidase-4 (Homo sapiens, UniProt Q8WWR8).
T2 sequence (Q8WWR8 whole entry): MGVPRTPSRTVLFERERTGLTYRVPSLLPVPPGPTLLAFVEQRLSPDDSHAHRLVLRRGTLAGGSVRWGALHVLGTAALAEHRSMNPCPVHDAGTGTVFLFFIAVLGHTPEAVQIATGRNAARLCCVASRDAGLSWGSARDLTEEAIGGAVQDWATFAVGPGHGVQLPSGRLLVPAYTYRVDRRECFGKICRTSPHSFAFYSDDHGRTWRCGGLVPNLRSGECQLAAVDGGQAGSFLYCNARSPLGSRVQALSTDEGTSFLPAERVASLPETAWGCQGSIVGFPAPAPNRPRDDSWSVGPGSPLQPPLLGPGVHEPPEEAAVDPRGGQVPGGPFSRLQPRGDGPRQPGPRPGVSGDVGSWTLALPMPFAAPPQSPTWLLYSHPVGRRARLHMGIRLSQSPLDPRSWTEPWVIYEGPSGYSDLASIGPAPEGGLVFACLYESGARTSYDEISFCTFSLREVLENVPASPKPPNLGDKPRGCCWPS
Description: Inhibition of human NEU4 expressed in HEK293 cells by fluorometric high-performance liquid chromatography using 4MU-NeuAc substrate.

The next assay has as its target Sialidase-1 (Homo sapiens, UniProt Q99519). The experiment in a line: Inhibition of human NEU1 expressed in HEK293 cells by fluorometric high-performance liquid chromatography using 4MU-NeuAc substrate.
Assay [2] has as its target T1, Sialidase-3. Description: Inhibition of human NEU3 expressed in HEK293 cells by fluorometric high-performance liquid chromatography using 4MU-NeuAc substrate.

By IC50 is commonly meant the midpoint of a concentration-inhibition curve. At Sialidase-3 [1], `CC(=O)N[C@H]1[C@H]([C@H](O)[C@H](O)CO)OC(C(=O)O)=C[C@@H]1O` [NEU5AC2EN] returned an IC50 of 0.0703 mM.
For the molecule `CCOC(=O)C1=C[C@@H](OC(CC)CC)[C@H](NC(C)=O)[C@@H](N)C1` [OSELTAMIVIR], the IC50 against Sialidase-4, on Sialidase-1 and against Sialidase-3 [2] was more than 10 mM throughout.
Turning to `CC(=O)N[C@H]1[C@H]([C@H](O)[C@H](O)CO)OC(C(=O)O)=C[C@@H]1N=C(N)N` [ZANAMIVIR], at Sialidase-1, 2.71 mM corresponded to half-maximal inhibition (IC50).
